Results taken from US11160788B2, “Caspase-1 inhibition and uses thereof for prevention and treatment of neurological conditions” (priority 2016, dated 2021).
Entries after “also recorded” stand apart in the source; their conditions may differ.

Columns and labels:
Format in all cases: in vivo, mouse
[1] = tested on: J20 mice; assay: Aβ immunostaining, thioflavin S and ELISA, treated symptomatic J20 mice brains
Excerpt: FIG. 11: VX-765 prevents the progression of Aβ in J20 mice. (a) Aβ immunohistographs of the stratum lacunosum molecular layer of the hippocampus and S1 cortex of pre-treated 5-month old J20 (baseline) and 8-month old vehicle- or VX-765-treated WT or J20 mice with anti-F2576 antiserum (Scale bar=50 μm). (b) Quantitative analysis comparing Aβ immunostaining density between J20+Vehicle (n=5) and J20+VX-765 (n=4) mice in the hippocampus from the pyramidal cell layer to the stratum lacunosum molecular layer (p=0.0029) and cortex (p=0.0314, unpaired t test). (c) Quantitative analysis comparing RIPA-soluble Aβ42 over total Aβ (Aβ38+Aβ40+Aβ42) levels in pre-treated 5-month old J20, 8-month old vehicle- or VX-765 treated J20 mice hippocampus (F(2,9)=6.614, p=0.0171, ANOVA, Tukey's post-hoc, * p<0.05). No ELISA signal was obtained from WT mice brains. (d) RIPA-soluble total Aβ measured by ELISA in pg/mg brain tissue. (e,f) Formic acid soluble Aβ42 over total Aβ (Aβ38+Aβ40+Aβ42) (e) and total Aβ (f) levels measured by ELISA in pg/mg brain tissue. Student t-test used to assess difference between J20+vehicle and J20+VX-765. (g,h,i) RIPA-soluble and (j,k,l) formic acid soluble Aβ38, Aβ40, and Aβ42 measured by ELISA in pg/mg brain tissue. (m) APP mRNA and protein levels and (n) insulin degrading enzyme (IDE) and neprilysin mRNA levels (o) in hippocampus and cortex.
FIG. 19: Aβ stained with Thioflavin S or anti-Aβ1-40 F25276 antiserum in mice hippocampi or cortex. (a) Comparison of anti-Aβ immunostaining and thioflavin S stained Aβ in 8 month old vehicle-treated WT and J20 and in VX-765-treated J20 brain hippocampi and cortex (after T3). (b) Anti-Aβ F25276 immunopositive staining in 8 month old vehicle-treated J20, J20/Casp1−/−, and VX-765-treated (T3) mice hippocampi. (c) Higher magnification of Aβ and Iba1 immunopositive deposits in 8 month old vehicle-treated J20, J20/Casp1^−/−, and VX-765-treated (T3) mice hippocampi.
To assess AD-like pathology, immunohistochemical analyses were performed to detect amyloid deposition (anti-AβF25276)^5,6, microglial (Iba1) activation^7, astrogliosis (GFAP), synaptophysin protein levels on coronal brain sections. Multiplex MSD ELISA was used to assess Aβ levels and 38,40, and 42 subtypes, and II-1β brain levels. RT-PCR was used to assess levels of human APP^Sw/Ind.

[2] = tested on: J20 mice; assay: NOR, preventive treatment of pre-symptomatic J20 mice
Method: FIG. 22: Novel object recognition behavioral assay to assess episodic memory in J20 mice. Mice were treated with vehicle (WT and J20) or 50 mg/kg VX-765 (J20) at 2 months of age for 1 month (3 injections per week×4 weeks=12 injections). (a) Schematic representation of the manner in which the studies were carried out. (b) Discrimination index indicates the number of touches of the novel object minus the number of touches of the familiar object divided by the number of total touches for both objects. Two-way ANOVA (F(2,240)=75.62, p<0.0001) with Dunnett's compared to the J20+vehicle. * p<0.05, **** p<0.0001 (c) % mice impaired in NOR in each group of mice tested at the different time points.
Studies are done on 8 (pre-symptomatic) week old J20 and littermate WT controls injected with 50 mg/Kg VX-765 or vehicle. The 8 week old mice are injected for 4 weeks (3 injections per week) and monitored for memory deficits at 16 weeks of age and every 4 weeks thereafter until the mice reach 8 months of age. VX-765 delays the onset of cognitive deficits by at least 5 months in the J20 mouse.
To determine if VX-765 can delay the appearance of AD-like cognitive deficits and pathology in the J20 mice, J20 mice were injected 3 times per week for 4 weeks starting at 2 months of age. We started NOR tests at 4 months of age, after 1 month without drug, and retested every month thereafter until 8 months of age (FIG. 3). […] At 8 months of age, only 1 of 3 mice have NOR deficit resulting in an averaged normal behavior. Since we sacrificed 2 mice per group at 4, 5, and 6 months and 3 mice per group at 7 and 8 months, note that the results of the older groups need more experimental data for solid conclusions.
(§1) We directly tested whether pre-symptomatic inhibition of inflammation in a mouse genetic model of Alzheimer disease can stem the progression of memory and behavioral deficits, and Alzheimer disease-like pathology. The J20 amyloid precursor protein Swedish/Indiana mutant mouse was treated at 2 months of age for a one month period with 50 mg/Kg Caspase-1 inhibitor VX-765 (FIG. 22a).

[3] = tested on: J20 mice; assay: Synaptophysin immunostaining, preventive treatment of J20 mice
Excerpt: FIG. 4: Immunostainings of mice hippocampus at 4 months of age (PREVENTION GROUP) with microglial Iba-1, astrocyte GFAP, and synaptic synaptophysin antibodies.
FIG. 27: Synaptophysin immunopositive staining in the hippocampus of mice brains at different times of washout. All sections were immunostained together and automatically with Dako immunostainer.
as §1

## CCO[C@@H]1OC(=O)C[C@@H]1NC(=O)[C@@H]1CCCN1C(=O)[C@@H](NC(=O)c1ccc(N)c(Cl)c1)C(C)(C)C [VX-765, (S)-1-((S)-2-{[1-(4-amino-3-chloro-phenyl)-methanoyl]-amino}-3,3-dimethyl-butanoyl)-pyrrolidine-2-carboxylic acid ((2R,3S)-2-ethoxy-5-oxo-tetrahydro-furan-3-yl)-amide]
[1]; ELISA of RIPA-extracted brain proteins
  Aβ42 level in cortex: reduced
[1]; hippocampal and cortical tissues
  formic acid soluble Aβ38, Aβ40, Aβ42: less abundant
[1]; hippocampus
  RIPA soluble Aβ42: reduced in the hippocampus
  formic acid soluble Aβ42 over total Aβ38+40+42: also reduced
[1]; hippocampus and cortex
  RIPA-soluble Aβ42 over total Aβ38+40+42: also reduced
  formic acid soluble total Aβ: strongly decreased
[1]; hippocampus and cortex, 50 mg/kg, 12 injections, vs vehicle-injected J20, 50 mg/kg
  deposited Aβ (thioflavin S, anti-Aβ immunostaining): only retained rare amyloid deposits; also recorded: substantially reduced
[2]; 50 mg/Kg, 3 injections per week for 4 weeks from 8 weeks of age
  delay of the onset of cognitive deficits: at least 5 months
[2]; 4, 5 and 6 months of age (1, 2, 3 month washout)
  NOR performance: perform normally on NOR
[2]; 7 months of age (4 month washout)
  mice that developed NOR deficits: 3 out of 6
[2]; 8 months of age
  mice with NOR deficit: 1 of 3
[2]; after 16 and 20 week washout
  NOR discrimination index: lower performance although they are still performing better than vehicle-treated J20 mice
[2]; average, each washout time point (4 to 20 weeks)
  NOR discrimination index: perform like the WT mice
[2]; each washout time point
  percentage of mice impaired in NOR: does not differ significantly from vehicle-treated WT mice
[3]; 4 month old J20 brains
  synaptophysin levels: impressive preservation of synaptophysin levels
[3]; hippocampus, different times of washout
  synaptophysin immunostaining: partly re-established
